Measured values reported in PubChem BioAssay AID192 (DTP/NCI, 2004).
Several values for one entry are separate records, joined by “and”; a condition that tells them apart may be missing. Identical values can stand only once. Toxic doses and inconclusive results are not listed.

Tested on: BDF1 mice, B16 melanoma ip, median survival T/C
Experiment: NCI In Vivo Anticancer Drug Screen. Data for tumor model B16 Melanoma (intraperitoneal) in B6D2F1 (BDF1) mice
Conditions: endpoint: median survival time, higher = longer survival
Procedure, shortened: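 Read-out: survival or tumor size, given as treated/control ratio. Controls received vehicle only; animals bore transplantable tumors.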

[1] = dose: 100.0 mg/kg/injection, schedule: Q01DX009 (ip), vehicle: Klucel (hydroxypropylcellulose) (HPC)
[2] = dose: 100.0 mg/kg/injection, schedule: Q01DX009 (ip), vehicle: saline with Tween-80
[3] = dose: 200.0 mg/kg/injection, schedule: Q01DX009 (ip), vehicle: saline with Tween-80
[4] = dose: 50.0 mg/kg/injection, schedule: Q01DX009 (ip), vehicle: saline with Tween-80
[5] = dose: 200.0 mg/kg/injection, schedule: Q01DX009 (ip), vehicle: Klucel (hydroxypropylcellulose) (HPC)
[6] = dose: 400.0 mg/kg/injection, schedule: Q01DX009 (ip), vehicle: Klucel (hydroxypropylcellulose) (HPC)
[7] = dose: 25.0 mg/kg/injection, schedule: Q01DX009 (ip), vehicle: saline with Tween-80
[8] = dose: 25.0 mg/kg/injection, schedule: Q01DX009 (ip), vehicle: saline
[9] = dose: 100.0 mg/kg/injection, schedule: Q01DX009 (ip), vehicle: saline

`O=C(O)CC(NC(=O)CP(=O)(O)O)C(=O)O` (centres undefined) was tested, and the T/C (dose: 10.0 mg/kg/injection, schedule: Q01DX005 (ip), vehicle: saline) was 112 % of control, the T/C (dose: 15.6 mg/kg/injection, schedule: Q03HX024 (ip), vehicle: saline) was 175 % of control and the T/C (dose: 20.0 mg/kg/injection, schedule: Q01DX005 (ip), vehicle: saline) was 123 % of control. The T/C (dose: 21.9 mg/kg/injection, schedule: Q01DX009 (ip), vehicle: saline) was 150 % of control, the T/C (dose: 25.9 mg/kg/injection, schedule: Q03HX024 (ip), vehicle: saline) was 176 % of control and the T/C (dose: 31.1 mg/kg/injection, schedule: Q01DX009 (ip), vehicle: saline) was 156 % of control. For the same molecule, the T/C (dose: 32.9 mg/kg/injection, schedule: Q01DX009 (ip), vehicle: saline) was 164 % of control, the T/C (dose: 43.2 mg/kg/injection, schedule: Q03HX024 (ip), vehicle: saline) was 182 % of control and the T/C (dose: 49.4 mg/kg/injection, schedule: Q01DX009 (ip), vehicle: saline) was 174 % of control. The T/C (dose: 51.8 mg/kg/injection, schedule: Q01DX009 (ip), vehicle: saline) was 177 % of control, the T/C (dose: 74.1 mg/kg/injection, schedule: Q01DX009 (ip), vehicle: saline) was 182 % of control and the T/C (dose: 77.8 mg/kg/injection, schedule: Q04DX003 (ip), vehicle: saline) was 153 % of control. The T/C (dose: 79.0 mg/kg/injection, schedule: Q01DX009 (ip), vehicle: saline) was 170 % of control, the T/C (dose: 79.0 mg/kg/injection, schedule: Q01DX009 (sc), vehicle: saline) was 165 % of control and the T/C (dose: 86.4 mg/kg/injection, schedule: Q01DX004 (ip), vehicle: saline) was 173 % of control. For the same molecule, the T/C (dose: 86.4 mg/kg/injection, schedule: Q01DX009 (ip), vehicle: saline) was 177 % of control, the T/C (dose: 111.0 mg/kg/injection, schedule: Q01DX009 (ip), vehicle: saline) was 201 % of control and the T/C (dose: 117.0 mg/kg/injection, schedule: Q04DX003 (oral), vehicle: saline) was 106 % of control. For the same molecule, the T/C (dose: 118.0 mg/kg/injection, schedule: Q01DX009 (ip), vehicle: saline) was 185 % of control, the T/C (dose: 118.0 mg/kg/injection, schedule: Q01DX009 (oral), vehicle: saline) was 100 % of control and the T/C (dose: 118.0 mg/kg/injection, schedule: Q01DX009 (sc), vehicle: saline) was 176 % of control. The T/C (dose: 125.0 mg/kg/injection, schedule: Q04DX003 (ip), vehicle: saline) was 162 % of control, the T/C (dose: 130.0 mg/kg/injection, schedule: Q04DX003 (ip), vehicle: saline) was 168 % of control and 171 % of control and the T/C (dose: 144.0 mg/kg/injection, schedule: Q01DX004 (ip), vehicle: saline) was 178 % of control. The T/C (dose: 144.0 mg/kg/injection, schedule: Q01DX009 (ip), vehicle: saline) was 199 % of control, the T/C (dose: 160.0 mg/kg/injection, schedule: Q01DX005 (ip), vehicle: saline) was 159 % of control and the T/C (dose: 167.0 mg/kg/injection, schedule: Q01DX009 (ip), vehicle: saline) was 204 % of control. For the same molecule, the T/C (dose: 177.0 mg/kg/injection, schedule: Q01DX009 (ip), vehicle: saline) was 177 % of control, the T/C (dose: 177.0 mg/kg/injection, schedule: Q01DX009 (sc), vehicle: saline) was 178 % of control and the T/C (dose: 194.0 mg/kg/injection, schedule: Q04DX003 (oral), vehicle: saline) was 110 % of control. The T/C (dose: 216.0 mg/kg/injection, schedule: Q04DX003 (ip), vehicle: saline) was 161 % of control and 201 % of control, the T/C (dose: 240.0 mg/kg/injection, schedule: Q01DX004 (ip), vehicle: saline) was 183 % of control and the T/C (dose: 250.0 mg/kg/injection, schedule: Q01DX009 (ip), vehicle: saline) was 190 % of control. The T/C (dose: 250.0 mg/kg/injection, schedule: Q04DX003 (ip), vehicle: saline) was 182 % of control, the T/C (dose: 320.0 mg/kg/injection, schedule: Q01DX005 (ip), vehicle: saline) was 175 % of control and the T/C (dose: 324.0 mg/kg/injection, schedule: Q01DX001 (ip), vehicle: saline) was 168 % of control. For the same molecule, the T/C (dose: 324.0 mg/kg/injection, schedule: Q04DX003 (oral), vehicle: saline) was 95 % of control, the T/C (dose: 360.0 mg/kg/injection, schedule: Q04DX003 (ip), vehicle: saline) was 171 % of control and 227 % of control and the T/C (dose: 400.0 mg/kg/injection, schedule: Q01DX001 (oral), vehicle: saline) was 97 % of control. For the same molecule, the T/C (dose: 400.0 mg/kg/injection, schedule: Q01DX004 (ip), vehicle: saline) was 46 % of control, the T/C (dose: 500.0 mg/kg/injection, schedule: Q04DX003 (ip), vehicle: saline) was 197 % of control and the T/C (dose: 540.0 mg/kg/injection, schedule: Q01DX001 (ip), vehicle: saline) was 174 % of control. For the same molecule, the T/C (dose: 540.0 mg/kg/injection, schedule: Q04DX003 (oral), vehicle: saline) was 110 % of control, the T/C (dose: 600.0 mg/kg/injection, schedule: Q04DX003 (ip), vehicle: saline) was 86 % of control and 201 % of control and the T/C (dose: 900.0 mg/kg/injection, schedule: Q01DX001 (ip), vehicle: saline) was 154 % of control and 190 % of control. The T/C (dose: 900.0 mg/kg/injection, schedule: Q01DX001 (oral), vehicle: saline) was 100 % of control, the T/C (dose: 900.0 mg/kg/injection, schedule: Q01DX001 (sc), vehicle: saline) was 154 % of control and the T/C (dose: 1350.0 mg/kg/injection, schedule: Q01DX001 (ip), vehicle: saline) was 150 % of control. The T/C (dose: 1350.0 mg/kg/injection, schedule: Q01DX001 (sc), vehicle: saline) was 120 % of control and the T/C (dose: 1500.0 mg/kg/injection, schedule: Q01DX001 (ip), vehicle: saline) was 119 % of control.

`CC(C)NNC(=O)c1ccc(Cl)cc1` was tested, and the T/C (dose: 6.25 mg/kg/injection, schedule: Q01DX009 (ip), vehicle: Klucel (hydroxypropylcellulose) (HPC)) was 89 % of control, the T/C (dose: 12.5 mg/kg/injection, schedule: Q01DX009 (ip), vehicle: Klucel (hydroxypropylcellulose) (HPC)) was 92 % of control and the T/C (dose: 25.0 mg/kg/injection, schedule: Q01DX009 (ip), vehicle: Klucel (hydroxypropylcellulose) (HPC)) was 89 % of control. The T/C (dose: 50.0 mg/kg/injection, schedule: Q01DX009 (ip), vehicle: Klucel (hydroxypropylcellulose) (HPC)) was 94 % of control and the T/C [1] was 107 % of control.

`O=[N+]([O-])c1ccc2c(N=Nc3c(O)ccc4ccccc34)c(O)cc(S(=O)(=O)O)c2c1` was tested, and the T/C [2] was 106 % of control and the T/C [3] was 102 % of control.

`COC(=O)N1C=Cc2ccccc2C1C#N` (centres undefined) was tested, and the T/C [4] was 95 % of control and the T/C [2] was 87 % of control.

For `CC(C)(C)C1CCNC(=O)CC1` (centres undefined), the T/C (dose: 5.0 mg/kg/injection, schedule: Q01DX009 (ip), vehicle: Klucel (hydroxypropylcellulose) (HPC)) was 88 % of control, the T/C (dose: 10.0 mg/kg/injection, schedule: Q01DX009 (ip), vehicle: Klucel (hydroxypropylcellulose) (HPC)) was 94 % of control and the T/C (dose: 20.0 mg/kg/injection, schedule: Q01DX009 (ip), vehicle: Klucel (hydroxypropylcellulose) (HPC)) was 97 % of control.

For `CCC(=O)c1cc([N+](=O)[O-])ccc1NC(C)=O`, the T/C [1] was 101 % of control, the T/C [5] was 107 % of control and the T/C [6] was 109 % of control.

With `NS(=O)(=O)OCCCCCCCOS(N)(=O)=O` the T/C [7] was 150 % of control and the T/C [4] was 181 % of control.

With `C1CNC2NCCNC2N1` (centres undefined) the T/C (dose: 6.25 mg/kg/injection, schedule: Q01DX009 (ip), vehicle: saline) was 114 % of control, the T/C (dose: 12.5 mg/kg/injection, schedule: Q01DX009 (ip), vehicle: saline) was 120 % of control and the T/C [8] was 105 % of control. The T/C [9] was 109 % of control.

For `CCCC(C(=O)O)C1=CCCC1` (centres undefined), the T/C [7] was 115 % of control, the T/C [4] was 112 % of control and the T/C [2] was 103 % of control.

`CC[C@H](CC[C@@H](C)[C@H]1CC[C@H]2[C@@H]3CC=C4C[C@@H](O)CC[C@]4(C)[C@H]3CC[C@]12C)C(C)C` was tested, and the T/C [1] was 91 % of control, the T/C [5] was 109 % of control and the T/C [6] was 94 % of control.

With `C1CC[N-]CC1.C1CC[N-]CC1.[Cl][Rh]([Cl])[Cl]` the T/C (dose: 12.5 mg/kg/injection, schedule: Q01DX009 (ip), vehicle: saline with Tween-80) was 100 % of control, the T/C [7] was 95 % of control and the T/C [4] was 102 % of control. For the same molecule, the T/C [2] was 94 % of control and the T/C [3] was 96 % of control.

With `CN(C)CCOc1ccccn1` the T/C [2] was 94 % of control and the T/C [3] was 97 % of control.

With `C=C(C)[C@@H]1CC[C@@H]2C(=CC[C@]3(C)C([C@H](C)CC/C=C(/C)C(=O)O)CC[C@@]23C)[C@@]1(C)CCC(=O)O` (some centres undefined) the T/C (dose: 22.5 mg/kg/injection, schedule: Q01DX009 (ip), vehicle: saline + alcohol) was 98 % of control and the T/C (dose: 45.0 mg/kg/injection, schedule: Q01DX009 (ip), vehicle: saline + alcohol) was 98 % of control.

`CNCCN(C)Cc1ccccc1` was tested, and the T/C [8] was 97 % of control, the T/C (dose: 50.0 mg/kg/injection, schedule: Q01DX009 (ip), vehicle: saline) was 94 % of control and the T/C [9] was 89 % of control.
